From patent US10738056B2 (Aduro BioTech, Inc., priority 2017, dated 2020)
Like-named read-outs stand apart in the source and are kept apart here.

Experiments:
[1] = biological target: Human cGAS amino acids 155-522 (Homo sapiens (Human), UniProt Q8N884); assay: cGAS biochemical activity assay (ATP remaining, Kinase-Glo Max luminescence); conditions: human cGAS 155-522, ATP remaining (Kinase-Glo Max); read-out: cGAS IC50
[2] = Solubility of free base (footnote to Table 15); assay type: physicochemical; conditions: tested as the HCl salt
[3] = system: cGAS/STING pathway in THP1 cells; assay: THP1 cell-based cGAS/STING pathway activity assay (IRF-3-linked luciferase reporter); conditions: Homo sapiens, THP-1
Procedure, shortened: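 THP1 cells carrying an IRF-3-driven luciferase reporter were read across a range of compound concentrations, and IC50 values were derived from these concentration responses; the assay upper limit was 100 μM.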

[4] = system: RANTES/CCL5 secretion by Trex1-KO BMM; assay: Inhibition of RANTES/CCL5 secretion by Trex1-KO bone marrow-derived macrophages; assay type: cell-based, mice; set-up: key to BMM IC50 R (RANTES): A: an IC50 value less than 5 μM; B: an IC50 value between 5 and 20 μM; where an IC50 value could not be calculated from the data; conditions: for IC50: Mus musculus, Macrophage
Protocol: A cellular assay can be used to asses the compounds of the invention for their ability to inhibit cytokine production. Bone marrow macrophages harvested from mice can be used to determine response as a function of compound concentration.
(§1) The inhibition of secreted cytokine was measured in bone marrow-derived macrophages (BMMs) from diseased mice to evaluate the potency of compounds of the invention as described herein. […] To derive bone marrow macrophages, marrow extracted from the femurs and tibias were harvested from Trex1-KO mice was cultured in growth media supplemented with macrophage colony-stimulating factor (M-CSF). Differentiated BMM were harvested and frozen for subsequent experimentation. For treatment with compound C1089 (see Example 13), a frozen stock of Trex1-KO BMM was thawed and 1×10^5 cells were plated in 96 well format. BMMs were treated with a dilution series of C1089 and incubated overnight at 37° C. 5% CO2, at which point cellular supernatants were harvested and stored at −80° C. for subsequent analysis. The media used for this dilution series was without FBS. Remaining cells were evaluated for viability using Cell Titer Glo 2.0 kit according to the manufacturer instructions. BMM supernatants were evaluated for the secreted cytokine […] (RANTES/CCL5) or for secreted cytokine monocyte chemoattractant protein 1 (MCP-1/CCL2) using cytometric bead array mouse Flex Set kits (BD Biosciences). Cytokine concentration was calculated from a standard curve and normalized to vehicle (DMSO) treated cells.

[5] = system: MCP-1/CCL2 secretion by Trex1-KO BMM; assay: Inhibition of MCP-1/CCL2 secretion by Trex1-KO bone marrow-derived macrophages; assay type: cell-based, mice; set-up: key to BMM IC50 M (MCP-1): A: an IC50 value less than 5 μM; B: an IC50 value between 5 and 20 μM; where an IC50 value could not be calculated from the data; conditions: for IC50: Mus musculus, Macrophage
Procedure, shortened: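 Bone marrow macrophages from Trex1-KO mice, differentiated with M-CSF, 1×10^5 cells/well, treated overnight at 37 °C with a compound dilution series in FBS-free medium. Secreted cytokine measured by cytometric bead array from a standard curve, normalized to DMSO; viability by CellTiter-Glo.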

Trex1-KO BMM = assay: Viability of Trex1-KO BMM (Cell Titer Glo 2.0); assay type: cell-based, mice; conditions: Trex1-KO BMM at the cytokine IC50 concentrations
Protocol: as §1

[6] = RANTES secretion, read-out: BMM IC50 R (RANTES)
[7] = MCP-1 secretion, read-out: BMM IC50 M (MCP-1)

Human cGAS amino acids 155-522, sequence (Q8N884 157-522): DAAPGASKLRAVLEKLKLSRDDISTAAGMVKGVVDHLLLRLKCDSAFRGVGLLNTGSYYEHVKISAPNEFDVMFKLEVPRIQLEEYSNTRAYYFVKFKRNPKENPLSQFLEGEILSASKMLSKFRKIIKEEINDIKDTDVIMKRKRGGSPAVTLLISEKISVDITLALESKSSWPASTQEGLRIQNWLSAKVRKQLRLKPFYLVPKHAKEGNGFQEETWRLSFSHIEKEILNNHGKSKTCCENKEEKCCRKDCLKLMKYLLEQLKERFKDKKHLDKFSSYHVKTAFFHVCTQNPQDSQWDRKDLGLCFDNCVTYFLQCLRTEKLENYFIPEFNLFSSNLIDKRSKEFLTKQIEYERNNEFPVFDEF

Row | SMILES | IC50 [1] [µM] | solubility of the free base [2] | IC50 [3] [µM] | BMM IC50 R (RANTES) ([4]; RANTES secretion) | BMM IC50 M (MCP-1) ([5]; MCP-1 secretion) | IC50 [4, 6] [µM] | IC50 [5, 7] [µM] | IC50 ([4]; overnight, media without FBS, normalized to DMSO, read-out: RANTES/CCL5 IC50) [µM] | IC50 ([5]; overnight, media without FBS, normalized to DMSO, read-out: MCP-1/CCL2 IC50) [µM] | BMM viability (Trex1-KO BMM) [%]
1 | COc1cc(CN)cc2oc(-c3c(C)[nH]c4c(-c5ccccc5)c(C(F)(F)F)nn4c3=O)nc12 [Compound C1128, 6-(6-(aminomethyl)-4-methoxybenzo[d]oxazol-2-yl)-5-methyl-3-phenyl-2-(trifluoromethyl)pyrazolo[1,5-a]pyrimidin-7(4H)-one] | > 250 | insoluble |  |  |  |  |  |  |  | 
2 | COc1ccc(C)c2oc(-c3c(C)[nH]c4c(-c5ccccc5)c(C(F)(F)F)nn4c3=O)nc12 [Compound C1092, 6-(4-methoxy-7-methylbenzo[d]oxazol-2-yl)-5-methyl-3-phenyl-2-(trifluoromethyl)pyrazolo[1,5-a]pyrimidin-7(4H)-one] | < 20 |  | > 100 | C | C |  |  |  |  | 
3 | COc1cc(Cl)cc2oc(-c3c(C)[nH]c4c(-c5ccccc5)c(C(F)(F)F)nn4c3=O)nc12 [Compound C1105, 6-(6-chloro-4-methoxybenzo[d]oxazol-2-yl)-5-methyl-3-phenyl-2-(trifluoromethyl)pyrazolo[1,5-a]pyrimidin-7(4H)-one] | < 20 |  | < 20 |  |  | < 5 | 5 to 20 |  |  | 
4 | COCc1[nH]c2c(-c3ccccc3)c(C(F)(F)F)nn2c(=O)c1-c1nnc(C2CCCC2)o1 [Compound D1018, 6-(5-cyclopentyl-1,3,4-oxadiazol-2-yl)-5-(methoxymethyl)-3-phenyl-2-(trifluoromethyl)pyrazolo[1,5-a]pyrimidin-7(4H)-one] | < 20 |  | 20 to 100 | C | C |  |  |  |  | 
5 | COc1cccc2oc(-c3c(COC4CCCCO4)[nH]c4c(-c5ccccc5)c(C(F)(F)F)nn4c3=O)nc12 (stereo not drawn) [Compound C1134, 6-(4-methoxybenzo[d]oxazol-2-yl)-3-phenyl-5-(((tetrahydro-2H-pyran-2-yl)oxy)methyl)-2-(trifluoromethyl)pyrazolo[1,5-a]pyrimidin-7(4H)-one] | < 20 |  | < 20 | C |  |  | 5 to 20 |  |  | 
6 | COc1ccc(Br)c2oc(-c3c(C)[nH]c4c(-c5ccccc5)c(C(F)(F)F)nn4c3=O)nc12 [Compound C1081, 6-(7-bromo-4-methoxybenzo[d]oxazol-2-yl)-5-methyl-3-phenyl-2-(trifluoromethyl)pyrazolo[1,5-a]pyrimidin-7(4H)-one] | < 20 |  | < 20 |  |  | 5 to 20 | 5 to 20 |  |  | 
7 | COc1ccc(N)c2oc(-c3c(C)[nH]c4c(-c5ccccc5)c(C(F)(F)F)nn4c3=O)nc12 [Compound C1154, 6-(7-amino-4-methoxybenzo[d]oxazol-2-yl)-5-methyl-3-phenyl-2-(trifluoromethyl)pyrazolo[1,5-a]pyrimidin-7(4H)-one] | < 20 |  | < 20 | C | C |  |  |  |  | 
8 | COc1cc(Cl)cc(NC(=O)c2c(C)[nH]c3c(-c4ccccc4)c(C(F)(F)F)nn3c2=O)c1 [Compound A1134, N-(3-chloro-5-methoxyphenyl)-5-methyl-7-oxo-3-phenyl-2-(trifluoromethyl)-4,7-dihydropyrazolo[1,5-a]pyrimidine-6-carboxamide] | < 20 |  | < 20 |  |  | < 5 | < 5 |  |  | 
9 | COc1cccc2oc(-c3c(C(F)(F)F)[nH]c4c(-c5ccccc5)c(C(F)(F)F)nn4c3=O)nc12 [Compound C1077, 6-(4-methoxybenzo[d]oxazol-2-yl)-3-phenyl-2,5-bis(trifluoromethyl)pyrazolo[1,5-a]pyrimidin-7(4H)-one] | < 20 |  | < 20 | C | C |  |  |  |  | 
10 | COc1ccc(Cl)c2oc(-c3c(C)[nH]c4c(-c5ccccc5)c(C(F)(F)F)nn4c3=O)nc12 [Compound C1094, 6-(7-chloro-4-methoxybenzo[d]oxazol-2-yl)-5-methyl-3-phenyl-2-(trifluoromethyl)pyrazolo[1,5-a]pyrimidin-7(4H)-one] | < 20 |  | < 20 |  | C | < 5 |  |  |  | 
11 | COc1nccc2oc(-c3c(C)[nH]c4c(-c5ccccc5)c(C#N)nn4c3=O)nc12 [Compound C1167, 6-(4-methoxyoxazolo[4,5-c]pyridin-2-yl)-5-methyl-7-oxo-3-phenyl-4,7-dihydropyrazolo[1,5-a]pyrimidine-2-carbonitrile] | < 20 |  | < 20 | C | C |  |  |  |  | 
12 | Cc1[nH]c2c(-c3ccccc3)c(C(F)(F)F)nn2c(=O)c1-c1nc2c(O)cccc2o1 [Compound C1053, 6-(4-hydroxybenzo[d]oxazol-2-yl)-5-methyl-3-phenyl-2-(trifluoromethyl)pyrazolo[1,5-a]pyrimidin-7(4H)-one] | < 20 |  | 20 to 100 | C | C |  |  |  |  | 
13 | COc1cccc2oc(-c3c(C#N)[nH]c4c(-c5ccccc5)c(C(F)(F)F)nn4c3=O)nc12 [Compound C1089, 6-(4-methoxybenzo[d]oxazol-2-yl)-7-oxo-3-phenyl-2-(trifluoromethyl)-4,7-dihydropyrazolo[1,5-a]pyrimidine-5-carbonitrile] | < 20 |  | < 20 |  |  |  |  | 1.25 | 6.97 | 100
